Reference: patent publication US11179450B2, “Long chain antigen containing interepitope sequence that promotes antigen presentation to T cells” (MIE UNIVERSITY, priority 2013, dated 2021)

Tests used:
[1] = tested on: CD8+ T cells specific to MA p265, NY p81 and mERK2 9m; assay: Specific CD8+ T cell induction by CHP/long chain peptide vaccines in mice, intracellular cytokine staining of spleen cells; format: in vivo, BALB/c mice
Text: Long chain peptide antigens MEN, all containing three types of mouse CD8+ T cell epitope sequences (MA p265 (Sequence No. 27), NY p81 (Sequence No. 29), and mERK2 9m (Sequence No. 28)), were synthesized. The interepitope sequences between the respective epitopes were respectively six consecutive tyrosines (Y6) (Sequence No. 1), six consecutive glycines (G6) (Sequence No. 2), six consecutive prolines (P6) (Sequence No. 3), or six consecutive threonines (T6) (Sequence No. 4). Each long chain peptide antigen was complexed with cholesterol-modified pullulan (CHP), which is a type of delivery system, and administered as a vaccine to a mouse. In the process of administration, CpG oligo DNA was coadministered as an adjuvant. Spleen cells were collected one week after the final administration and the frequencies of CD8+ T cells specific to the respective epitope sequences were measured by an intracellular cytokine staining method.
Long chain peptide antigens NME, all containing three types of mouse CD8+ T cell epitope sequences (MA p265 (Sequence No. 27), NY p81 (Sequence No. 29), and mERK2 9m (Sequence No. 28)), were synthesized. The antigens differ from the MEN sequences shown in FIG. 1 in the order of the three types of epitopes. The interepitope sequences between the respective epitopes were respectively six consecutive tyrosines (Y6) (Sequence No. 5), six consecutive glycines (G6) (Sequence No. 6), or six consecutive prolines (P6) (Sequence No. 7). Vaccines containing the respective long chain peptide antigens were administered to mice in the same manner as in FIG. 1 and the frequencies of CD8+ T cells specific to the respective epitope sequences were measured by the intracellular cytokine staining method.
Long chain peptide antigens MEN, ENM, and NME, all containing three types of mouse CD8+ T cell epitope sequences (MA p265 (Sequence No. 27), NY p81 (Sequence No. 29), and mERK2 9m (Sequence No. 28)), were synthesized. MEN, ENM, and […] in the order of the three types of epitopes. The interepitope sequences between the respective epitopes were each six consecutive tyrosines (Y6) (Sequence Nos. 1, 5 and 8). Vaccines containing the respective long chain peptide antigens were administered to mice in the same manner as in FIG. 1 and the frequencies of CD8+ T cells specific to the respective epitope sequences were measured by the intracellular cytokine staining method.
Each long chain peptide was dissolved in dimethyl sulfoxide (DMSO) at a concentration of 10 mg/mL. CHP was dissolved in 6 M urea-containing phosphate buffered saline (PBS) at a concentration of 10 mg/mL 1 mL (10 mg) of the long chain peptide solution and 20 mL (200 mg) of the CHP solution were mixed and left to stand at room temperature overnight in a dark place. The liquid mixture was transferred into a dialysis membrane (molecular weight cutoff: 3,500; Thermo Fisher Scientific, Inc.) and dialyzed for 2 hours to overnight at 4° C. against 0.6 M urea-containing PBS of a volume ratio of not less than 100 times as the dialysis outer solution. Dialysis was then performed for 2 hours to overnight at 4° C. against 0.06 M urea-containing PBS of a volume ratio of not less than 100 times as the dialysis outer solution. Dialysis was performed again for 2 hours to overnight at 4° C. against PBS of a volume ratio of not less than 100 times as the dialysis outer solution. The dialyzed inner solution was collected, filtered through a filtration sterilization filter of 0.45 μm or 0.22 μm pore size, and thereafter the UV absorption at 280 nm was measured to determine the final concentration of the long chain peptide from its molecular extinction coefficient.
Each CHP/long chain peptide complex as the vaccine and the CpG oligo DNA as the adjuvant were administered at the same time to a mouse. Administration was performed by subcutaneous injection on the back of the mouse. […]

[2] = tested on: NY p157 specific CD8+ T cell clone 1G4 cells; assay: Antigen presentation by LCL given CHP/long chain peptide vaccine, IFN-γ ELISPOT; format: cell-based, human; conditions: FIG. 10; NMW peptide complexed with CHP given to LCL as antigen-presenting cells
Text: Long chain peptide antigens NMW, all containing three types of human CD8+ T cell epitope sequences (NY p157:HLA-A0201 restrictive, MA4 p143:HLA-A2402 restrictive, and WT1: HLA-A2402 restrictive p235), were synthesized. The interepitode sequences between the respective epitopes were the six consecutive amino acids shown in FIG. 10, namely Sequence Nos. 18-26. Each long chain peptide antigen was complexed with cholesterol-modified pullulan (CHP), which is a type of delivery system, and administered in vitro as a vaccine to an immortalized human B cell line (LCL). Using these human B cells as the antigen-presenting cells, they were co-cultured with CD8+ T cell clone 1G4 cells specific to NY p157 and the activation of the 1G4 cells due to antigen presentation was measured by an IFN-γ ELISPOT method. As a positive control, LCL administered with an NY p157 short chain peptide was used as the antigen-presenting cells, and as a negative control, LCL without antigen added was used as the antigen-presenting cells.
Cryostored LCL was rinsed with RPMI medium and suspended at 1.25×10^6/mL in X-VIVO15 medium. This was dispensed in 0.4 mL aliquots into polypropylene tubes, and 0.1 mL of a vaccine solution (0.1 mg/mL as peptide) was added to each tube. The cells were cultured for 24 hours at 37° C. in the presence of 5% CO2 and then used as antigen-presenting cells.
75 μL aliquots of anti-IFN-γ antibody for capture, diluted to an appropriate concentration, were dispensed into a 96-well plate (Millipore Corp., Multiscreen HA, MAHAS4510) specially designed for ELISPOT and left to stand overnight at 4° C. After discarding the liquid and rinsing with RPMI medium, 100 μL aliquots of RPMI medium containing 10% fetal bovine serum were dispensed and the plate was left to stand for not less than 1 hour at 37° C. The liquid was discarded, and the LCL prepared in (9) or (10) was adjusted to 5×10^4 cells/100 μL/well and added to each well. The cryostored CD8^+ T cell clones were thawed, rinsed, adjusted to 5×10^5/mL with RPMI medium, and thereafter added in 0.1 mL aliquots to each well. After culturing for 24 hours at 37° C. in the presence of 5% CO2, the liquid was discarded and the plate was rinsed well with phosphate buffered saline containing 0.05% Tween 20 (PBS-T). A biotin-labeled IFN-γ antibody for detection was diluted to an appropriate concentration and dispensed in 0.1 mL aliquots into each well. After letting stand overnight at 4° C., the plate was rinsed well with PBS-T, and an alkaline phosphatase-labeled streptavidin diluted to an appropriate concentration was added in 0.1 mL aliquots. After incubating for 1 hour at room temperature, the plate was rinsed well with PBS-T. A coloring solution was added in 0.1 mL aliquots and allowed to react for 5 minutes to 30 minutes at room temperature. When the formation of spots was observed, the reaction was stopped by rinsing with water.

[3] = FIG. 3, NME antigens (different epitope order) complexed with CHP, CpG oligo DNA
[4] = FIG. 4, MEN, ENM, NME epitope orders, interepitope sequence fixed at Y6

Sequence	activation of 1G4 cells [2]	also measured
SNPARYEFLTTTTTTQYIHSANVLTTTTTTRGPESRLL (Long chain peptide antigen, containing three types of mouse CD8+ T cell epitope sequences (MA p265, NY p81, and mERK2 9m)) [MEN(T6)]	–	induction of specific CD8+ T cells corresponding to all three types of epitopes ([1]; FIG. 1, MEN antigens complexed with CHP, subcutaneous, CpG oligo DNA adjuvant, spleen cells one week after final administration): clearly induced
SLLMWITQCQQQQQQNYKRCFPVIQQQQQQCMTWNQMNL (Long chain peptide antigen, containing three types of human CD8+ T cell recognition epitope sequences (NY p157, MA4 p143, and WT1 p235)) [NMW(Q6)]	clearly observed	–
RGPESRLLPPPPPPSNPARYEFLPPPPPPQYIHSANVL (Long chain peptide antigen, containing three types of mouse CD8+ T cell epitope sequences (MA p265, NY p81, and mERK2 9m)) [NME(P6)]	–	induction of specific CD8+ T cells corresponding to all three types of epitopes [1, 3]: not observed for one or two types of epitopes among the three types of epitopes
SLLMWITQCYYYYYYNYKRCFPVIYYYYYYCMTWNQMNL (Long chain peptide antigen, containing three types of human CD8+ T cell recognition epitope sequences (NY p157, MA4 p143, and WT1 p235)) [NMW(Y6)]	clearly confirmed	–
RGPESRLLGGGGGGSNPARYEFLGGGGGGQYIHSANVL (Long chain peptide antigen, containing three types of mouse CD8+ T cell epitope sequences (MA p265, NY p81, and mERK2 9m)) [NME(G6)]	–	induction of specific CD8+ T cells corresponding to all three types of epitopes [1, 3]: not observed for one or two types of epitopes among the three types of epitopes
SLLMWITQCGGGGGGNYKRCFPVIGGGGGGCMTWNQMNL (Long chain peptide antigen, containing three types of human CD8+ T cell recognition epitope sequences (NY p157, MA4 p143, and WT1 p235)) [NMW(G6)]	not clearly confirmed	–
QYIHSANVLYYYYYYRGPESRLLYYYYYYSNPARYEFL (Long chain peptide antigen, containing three types of mouse CD8+ T cell epitope sequences (MA p265, NY p81, and mERK2 9m)) [ENM(Y6)]	–	induction of specific CD8+ T cells corresponding to all three types of epitopes [1, 4]: clearly induced
SLLMWITQCSSSSSSNYKRCFPVISSSSSSCMTWNQMNL (Long chain peptide antigen, containing three types of human CD8+ T cell recognition epitope sequences (NY p157, MA4 p143, and WT1 p235)) [NMW(S6)]	clearly observed	–
SLLMWITQCAAAAAANYKRCFPVIAAAAAACMTWNQMNL (Long chain peptide antigen, containing three types of human CD8+ T cell recognition epitope sequences (NY p157, MA4 p143, and WT1 p235)) [NMW(A6)]	clearly observed	–
SLLMWITQCPPPPPPNYKRCFPVIPPPPPPCMTWNQMNL (Long chain peptide antigen, containing three types of human CD8+ T cell recognition epitope sequences (NY p157, MA4 p143, and WT1 p235)) [NMW(P6)]	not clearly confirmed	–
SLLMWITQCNNNNNNNYKRCFPVINNNNNNCMTWNQML (SLLMWITQCNNNNNNNYKRCFPVINNNNNNCMTWNQMNL; Long chain peptide antigen, containing three types of human CD8+ T cell recognition epitope sequences (NY p157, MA4 p143, and WT1 p235)) [NMW(N6)]	clearly observed	–
RGPESRLLYYYYYYSNPARYEFLYYYYYYQYIHSANVL (Long chain peptide antigen, containing three types of mouse CD8+ T cell epitope sequences (MA p265, NY p81, and mERK2 9m)) [NME(Y6)]	–	induction of specific CD8+ T cells corresponding to all three types of epitopes [1, 3]: clearly induced; induction of specific CD8+ T cells corresponding to all three types of epitopes [1, 4]: clearly induced
